Reference: ChEMBL document CHEMBL5653631, “A Potent and Selective ULK1 Inhibitor Suppresses Autophagy and Sensitizes Cancer Cells to Nutrient Stress” (iScience, 2018)

Legend:
[1] = target: T1, Serine/threonine-protein kinase TBK1 (Homo sapiens) (UniProt Q9UHD2); test: Inhibition of human recombinant TBK1 at 40 nM related to control ULK1
T1 sequence (whole entry): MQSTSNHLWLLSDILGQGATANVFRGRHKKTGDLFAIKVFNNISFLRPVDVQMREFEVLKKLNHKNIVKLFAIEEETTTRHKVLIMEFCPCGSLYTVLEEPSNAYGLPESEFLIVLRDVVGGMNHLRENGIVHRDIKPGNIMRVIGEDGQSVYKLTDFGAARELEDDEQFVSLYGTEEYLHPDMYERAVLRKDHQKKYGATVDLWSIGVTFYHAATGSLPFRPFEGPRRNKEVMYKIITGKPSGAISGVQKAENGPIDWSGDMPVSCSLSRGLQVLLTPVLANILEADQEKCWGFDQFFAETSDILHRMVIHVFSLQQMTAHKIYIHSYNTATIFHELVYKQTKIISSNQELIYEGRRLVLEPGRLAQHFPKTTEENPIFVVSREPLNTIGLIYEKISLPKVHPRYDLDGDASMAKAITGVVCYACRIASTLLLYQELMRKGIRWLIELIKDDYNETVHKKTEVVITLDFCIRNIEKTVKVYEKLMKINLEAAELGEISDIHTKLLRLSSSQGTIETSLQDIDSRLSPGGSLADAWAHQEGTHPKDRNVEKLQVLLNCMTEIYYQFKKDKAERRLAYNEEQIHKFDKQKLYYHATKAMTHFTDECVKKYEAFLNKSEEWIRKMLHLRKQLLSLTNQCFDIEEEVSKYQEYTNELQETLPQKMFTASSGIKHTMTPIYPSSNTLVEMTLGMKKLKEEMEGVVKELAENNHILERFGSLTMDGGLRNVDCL

[2] = target: T2, Mitogen-activated protein kinase 13 (Homo sapiens) (UniProt O15264); test: Inhibition of human recombinant p38delta at 15 nM in presence of ATP by radiometric assay relative to control
T2 sequence (whole entry): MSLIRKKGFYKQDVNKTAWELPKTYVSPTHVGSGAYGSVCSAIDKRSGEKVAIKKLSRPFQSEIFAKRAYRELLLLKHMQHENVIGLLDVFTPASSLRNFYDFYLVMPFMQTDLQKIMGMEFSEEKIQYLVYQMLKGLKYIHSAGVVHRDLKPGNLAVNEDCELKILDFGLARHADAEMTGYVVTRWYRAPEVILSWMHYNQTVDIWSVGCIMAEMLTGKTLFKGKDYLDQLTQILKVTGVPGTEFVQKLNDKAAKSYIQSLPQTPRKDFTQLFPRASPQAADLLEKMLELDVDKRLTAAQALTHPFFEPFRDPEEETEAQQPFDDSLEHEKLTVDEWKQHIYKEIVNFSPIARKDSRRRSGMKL

[3] = target: Myosin light chain kinase 2, skeletal/cardiac muscle (Homo sapiens) (UniProt Q9H1R3); test: Inhibition of human recombinant skMLCK at 15 nM in presence of ATP by radiometric assay relative to control
[4] = target: Leukocyte tyrosine kinase receptor (Homo sapiens) (UniProt P29376); test: Inhibition of human recombinant LTK at 15 nM related to control ULK1
[5] = target: T3, Tyrosine-protein kinase ITK/TSK (Homo sapiens) (UniProt Q08881); test: Inhibition of human recombinant ITK at 500 nM in presence of ATP by radiometric assay relative to control
T3 sequence (whole entry): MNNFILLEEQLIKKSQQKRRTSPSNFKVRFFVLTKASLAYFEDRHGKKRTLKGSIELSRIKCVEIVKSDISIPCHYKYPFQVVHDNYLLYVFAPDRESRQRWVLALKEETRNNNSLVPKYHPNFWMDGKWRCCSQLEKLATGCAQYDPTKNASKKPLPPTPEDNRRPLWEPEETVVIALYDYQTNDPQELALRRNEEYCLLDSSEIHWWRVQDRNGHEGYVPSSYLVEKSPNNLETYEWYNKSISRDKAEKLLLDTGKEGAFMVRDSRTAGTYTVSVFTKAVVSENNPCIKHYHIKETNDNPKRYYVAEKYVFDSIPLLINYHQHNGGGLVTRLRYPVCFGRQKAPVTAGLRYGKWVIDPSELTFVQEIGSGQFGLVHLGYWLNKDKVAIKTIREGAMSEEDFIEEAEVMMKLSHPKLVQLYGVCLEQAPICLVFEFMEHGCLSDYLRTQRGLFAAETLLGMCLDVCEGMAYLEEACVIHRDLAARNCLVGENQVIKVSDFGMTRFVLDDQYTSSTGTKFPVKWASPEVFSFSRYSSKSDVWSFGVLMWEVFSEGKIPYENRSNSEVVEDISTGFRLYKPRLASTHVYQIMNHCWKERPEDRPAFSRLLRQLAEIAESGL

[6] = target: Tau-tubulin kinase 2 (Homo sapiens) (UniProt Q6IQ55); test: Inhibition of human recombinant TTBK2 at 500 nM related to control ULK1
Chain of Tau-tubulin kinase 2 (Homo sapiens) (Q6IQ55 whole entry): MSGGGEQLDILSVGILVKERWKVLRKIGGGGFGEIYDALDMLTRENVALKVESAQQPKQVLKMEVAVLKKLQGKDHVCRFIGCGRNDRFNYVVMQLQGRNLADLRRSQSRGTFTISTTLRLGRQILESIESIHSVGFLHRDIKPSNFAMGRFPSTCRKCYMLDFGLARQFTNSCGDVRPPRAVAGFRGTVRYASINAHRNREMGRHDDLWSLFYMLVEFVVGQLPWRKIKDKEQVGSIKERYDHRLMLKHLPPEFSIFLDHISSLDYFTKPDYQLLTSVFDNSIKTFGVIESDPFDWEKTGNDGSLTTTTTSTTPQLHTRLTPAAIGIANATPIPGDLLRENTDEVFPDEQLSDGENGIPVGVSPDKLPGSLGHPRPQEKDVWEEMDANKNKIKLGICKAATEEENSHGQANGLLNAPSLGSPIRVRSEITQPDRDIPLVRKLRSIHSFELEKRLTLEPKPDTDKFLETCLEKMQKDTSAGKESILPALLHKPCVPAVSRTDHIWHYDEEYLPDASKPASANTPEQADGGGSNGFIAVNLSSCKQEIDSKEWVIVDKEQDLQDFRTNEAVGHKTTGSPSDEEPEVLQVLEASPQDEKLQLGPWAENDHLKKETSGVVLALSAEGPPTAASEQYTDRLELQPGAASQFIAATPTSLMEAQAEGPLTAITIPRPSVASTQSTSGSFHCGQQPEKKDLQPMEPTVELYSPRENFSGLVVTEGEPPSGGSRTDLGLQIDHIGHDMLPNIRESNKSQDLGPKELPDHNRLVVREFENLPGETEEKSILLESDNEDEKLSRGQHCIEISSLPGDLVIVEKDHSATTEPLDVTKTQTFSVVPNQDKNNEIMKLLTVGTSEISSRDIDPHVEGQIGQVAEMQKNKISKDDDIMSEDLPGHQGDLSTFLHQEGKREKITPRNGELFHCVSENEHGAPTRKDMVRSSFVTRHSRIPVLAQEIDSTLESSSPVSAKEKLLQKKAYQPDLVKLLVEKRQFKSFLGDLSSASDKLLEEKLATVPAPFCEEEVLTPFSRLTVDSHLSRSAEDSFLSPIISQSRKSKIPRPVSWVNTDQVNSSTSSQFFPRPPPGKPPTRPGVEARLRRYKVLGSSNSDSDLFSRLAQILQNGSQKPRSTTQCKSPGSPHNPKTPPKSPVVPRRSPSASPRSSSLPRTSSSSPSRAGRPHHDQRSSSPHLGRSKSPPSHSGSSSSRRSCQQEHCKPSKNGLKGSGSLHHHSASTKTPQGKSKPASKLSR

Chain of Leukocyte tyrosine kinase receptor (Homo sapiens) (P29376 whole entry): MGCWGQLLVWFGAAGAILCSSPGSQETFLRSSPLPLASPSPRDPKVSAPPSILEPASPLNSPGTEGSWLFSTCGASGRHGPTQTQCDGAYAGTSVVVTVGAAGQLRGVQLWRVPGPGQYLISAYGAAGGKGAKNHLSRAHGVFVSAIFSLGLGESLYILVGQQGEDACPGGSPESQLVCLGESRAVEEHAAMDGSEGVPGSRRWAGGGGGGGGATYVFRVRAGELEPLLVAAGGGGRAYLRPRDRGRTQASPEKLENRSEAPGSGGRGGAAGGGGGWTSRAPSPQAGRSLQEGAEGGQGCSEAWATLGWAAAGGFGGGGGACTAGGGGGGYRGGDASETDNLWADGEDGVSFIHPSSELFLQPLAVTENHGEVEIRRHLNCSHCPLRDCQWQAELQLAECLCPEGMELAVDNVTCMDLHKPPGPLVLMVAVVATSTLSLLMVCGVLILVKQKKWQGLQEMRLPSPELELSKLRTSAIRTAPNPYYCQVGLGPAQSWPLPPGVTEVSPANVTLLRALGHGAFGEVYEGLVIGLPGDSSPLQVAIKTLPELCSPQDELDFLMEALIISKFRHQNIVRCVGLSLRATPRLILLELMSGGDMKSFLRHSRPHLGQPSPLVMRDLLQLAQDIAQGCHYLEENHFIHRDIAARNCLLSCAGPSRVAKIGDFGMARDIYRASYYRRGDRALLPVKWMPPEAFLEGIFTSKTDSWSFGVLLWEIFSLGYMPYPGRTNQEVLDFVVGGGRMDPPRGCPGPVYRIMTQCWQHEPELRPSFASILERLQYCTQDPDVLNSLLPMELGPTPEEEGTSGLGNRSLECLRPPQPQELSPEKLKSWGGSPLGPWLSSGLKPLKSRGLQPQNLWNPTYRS
Chain of Myosin light chain kinase 2, skeletal/cardiac muscle (Homo sapiens) (Q9H1R3 whole entry): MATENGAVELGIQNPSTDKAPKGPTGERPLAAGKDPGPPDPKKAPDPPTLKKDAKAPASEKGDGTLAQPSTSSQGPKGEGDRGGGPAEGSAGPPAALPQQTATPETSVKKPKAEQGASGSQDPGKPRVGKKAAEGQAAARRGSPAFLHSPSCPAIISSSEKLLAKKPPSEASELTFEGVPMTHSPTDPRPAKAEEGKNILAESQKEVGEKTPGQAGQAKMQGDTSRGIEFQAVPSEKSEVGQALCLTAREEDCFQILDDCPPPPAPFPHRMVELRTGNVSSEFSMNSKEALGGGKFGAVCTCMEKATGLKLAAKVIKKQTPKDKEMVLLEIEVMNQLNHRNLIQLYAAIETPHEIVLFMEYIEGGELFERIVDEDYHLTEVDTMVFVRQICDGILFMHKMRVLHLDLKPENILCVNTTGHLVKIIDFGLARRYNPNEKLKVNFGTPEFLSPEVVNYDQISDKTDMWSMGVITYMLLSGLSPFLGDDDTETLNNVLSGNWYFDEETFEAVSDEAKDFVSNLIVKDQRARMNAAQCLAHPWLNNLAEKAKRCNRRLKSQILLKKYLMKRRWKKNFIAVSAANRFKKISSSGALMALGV

Which fold change (FC) [1] does the source give for `O=C(N[C@@H](C1CC1)C(F)(F)F)c1cc(-c2cnn3cc(-c4ccc(F)cc4)cnc23)cs1` here?
Its fold change (FC) is 0.36.

Which results are given for `CC(C)[C@H](NC(=O)c1cc(-c2cnn3cc(-c4ccc(OCCN5CCCCC5)cc4)cnc23)cs1)C(F)(F)F`?
inhibition [2]: 6%; inhibition [3]: 11%; fold change (FC) [4]: 0

What does the source list for `CNC(=O)c1ccccc1Oc1nc(Nc2cc(OC)c(OC)c(OC)c2)ncc1Br`?
inhibition [5]: 1%; fold change (FC) [6]: 0.08
